Experimental data: ChEMBL document CHEMBL4020846 (J Med Chem, 2018)
The source made the active and inactive calls. The calls are words filed in the database; no cut-off is given here.

Tests used:
[1] = target: T1, Nucleotide-binding oligomerization domain-containing protein 2 (Homo sapiens, UniProt Q9HC29); experiment: Agonist activity at human NOD2 expressed in HEK-Blue cells assessed as induction of NF-kB transcriptional activity at 20 uM after 18 hrs by SEAP reporter gene assay; assay type: cell-based
[2] = Cytotoxicity against HEK-Blue cells over-expressing NOD2 assessed as residual metabolic activity at 20 uM after 18 hrs by CellTiter 96 aqueous one solution cell proliferation assay relative to control; assay type: ADME, cell-based; conditions: human, read-out: Activity
[3] = target: T2, Nucleotide-binding oligomerization domain-containing protein 1 (Homo sapiens) (UniProt Q9Y239); experiment: Agonist activity at human NOD1 expressed in HEK-Blue cells assessed as induction of NF-kB transcriptional activity at 20 uM after 18 hrs by SEAP reporter gene assay; assay type: cell-based
T2 sequence (whole entry): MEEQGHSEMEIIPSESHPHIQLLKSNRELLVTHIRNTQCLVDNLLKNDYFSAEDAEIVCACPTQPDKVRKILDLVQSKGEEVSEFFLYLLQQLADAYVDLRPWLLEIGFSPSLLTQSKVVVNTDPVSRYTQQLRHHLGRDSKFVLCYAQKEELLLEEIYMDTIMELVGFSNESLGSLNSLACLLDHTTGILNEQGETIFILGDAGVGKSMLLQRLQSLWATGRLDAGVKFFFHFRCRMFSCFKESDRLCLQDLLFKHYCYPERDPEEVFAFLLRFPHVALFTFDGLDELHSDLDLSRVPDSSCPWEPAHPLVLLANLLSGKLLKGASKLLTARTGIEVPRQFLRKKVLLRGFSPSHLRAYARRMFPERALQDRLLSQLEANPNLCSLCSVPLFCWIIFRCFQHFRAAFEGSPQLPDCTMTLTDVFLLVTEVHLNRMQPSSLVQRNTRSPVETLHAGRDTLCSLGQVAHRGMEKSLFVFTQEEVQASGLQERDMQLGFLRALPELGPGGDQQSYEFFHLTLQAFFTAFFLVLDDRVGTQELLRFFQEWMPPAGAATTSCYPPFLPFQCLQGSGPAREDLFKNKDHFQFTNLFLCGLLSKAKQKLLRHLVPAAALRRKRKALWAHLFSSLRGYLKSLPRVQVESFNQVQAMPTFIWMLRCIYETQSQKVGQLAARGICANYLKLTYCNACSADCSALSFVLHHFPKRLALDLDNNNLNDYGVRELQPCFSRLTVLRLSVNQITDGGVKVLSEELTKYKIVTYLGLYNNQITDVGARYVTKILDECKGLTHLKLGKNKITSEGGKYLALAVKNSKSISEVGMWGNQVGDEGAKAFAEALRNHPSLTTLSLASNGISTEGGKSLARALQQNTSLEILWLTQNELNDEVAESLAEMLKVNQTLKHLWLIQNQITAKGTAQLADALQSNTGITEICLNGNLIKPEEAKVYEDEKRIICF

[4] = target: T1, Nucleotide-binding oligomerization domain-containing protein 2; experiment: Agonist activity at human NOD2 expressed in HEK-Blue cells assessed as induction of NF-kB transcriptional activity after 18 hrs by SEAP reporter gene assay; assay type: cell-based
[5] = target: T1, Nucleotide-binding oligomerization domain-containing protein 2; experiment: Agonist activity at human NOD2 expressed in HEK-Blue cells assessed as induction of NF-kB transcriptional activity at 2 uM after 18 hrs by SEAP reporter gene assay relative to control; assay type: cell-based
[6] = target: T1, Nucleotide-binding oligomerization domain-containing protein 2; experiment: Agonist activity at human NOD2 expressed in HEK-Blue cells assessed as induction of NF-kB transcriptional activity at 2 uM after 18 hrs in presence of NOD2 antagonist GSK-669 by SEAP reporter gene assay; assay type: cell-based
PBMC [7] = experiment: Immunostimulatory activity in human PBMC assessed as increase in TNF-alpha release at 2 uM after 18 hrs by flow cytometry; assay type: functional, cell-based
PBMC [8] = experiment: Immunostimulatory activity in human PBMC assessed as increase in IL-6 release at 2 uM after 18 hrs by flow cytometry; assay type: functional, cell-based
PBMC [9] = experiment: Immunostimulatory activity in human PBMC assessed as increase in IL-10 release at 2 uM after 18 hrs by flow cytometry; assay type: functional, cell-based
PBMC [10] = experiment: Immunostimulatory activity in human PBMC assessed as increase in IL-10 release at 2 uM after 18 hrs in presence of LPS by flow cytometry relative to control; assay type: functional
PBMC [11] = experiment: Immunostimulatory activity in human PBMC assessed as increase in TNF-alpha release at 2 uM after 18 hrs in presence of LPS by flow cytometry relative to control; assay type: functional
PBMC [12] = experiment: Immunostimulatory activity in human PBMC assessed as increase in IL-6 release at 2 uM after 18 hrs in presence of LPS by flow cytometry relative to control; assay type: functional
PBMC [13] = experiment: Immunostimulatory activity in human PBMC assessed as increase in IL-2 release at 2 uM after 18 hrs in presence of LPS by flow cytometry; assay type: functional, cell-based
PBMC [14] = experiment: Immunostimulatory activity in human PBMC assessed as increase in IL-4 release at 2 uM after 18 hrs in presence of LPS by flow cytometry; assay type: functional, cell-based
PBMC [15] = experiment: Immunostimulatory activity in human PBMC assessed as increase in IL-17A release at 2 uM after 18 hrs in presence of LPS by flow cytometry; assay type: functional, cell-based
PBMC [16] = experiment: Immunostimulatory activity in human PBMC assessed as increase in IFNgamma release at 2 uM after 18 hrs in presence of LPS by flow cytometry; assay type: functional, cell-based
Mus musculus [17] = experiment: Immunoadjuvant activity in ovalbumin-induced NIH/OlaHsd mouse model of adjuvancy assessed as induction of ovalbumin-specific humoral immune response by measuring increase in anti-OVA IgG level in serum at 200 ug, sc using liposome encapsulated compound measured on day 7 post second booster by ELISA; assay type: functional, organism-based
Mus musculus [18] = experiment: Immunoadjuvant activity in ovalbumin-induced NIH/OlaHsd mouse model of adjuvancy assessed as modulation of Th1/Th2-bias of induced immune response by measuring ratio of anti-OVA IgG1 to anti-OVA IgG2a level in serum at 200 ug, sc using liposome encapsulated compound measured on day 7 post second booster by ELISA (reference value: 1.69 +/- 0.28); assay type: functional
[19] = Drug metabolism in HEK293 cells assessed as retention time at 2 uM by LC-MS analysis; assay type: ADME, cell-based; conditions: human, hek293, 2 µM
[20] = Stability in HEK293 cells at 2 uM up to 18 hrs by LC-MS analysis; assay type: ADME, cell-based; conditions: human, hek293, 18 h
[21] = Drug level in HEK293 cells cytosol at 2 uM after 18 hrs by LC-MS analysis; assay type: ADME, cell-based; conditions: human

T1 sequence (Q9HC29 whole entry, the tested form may be a part): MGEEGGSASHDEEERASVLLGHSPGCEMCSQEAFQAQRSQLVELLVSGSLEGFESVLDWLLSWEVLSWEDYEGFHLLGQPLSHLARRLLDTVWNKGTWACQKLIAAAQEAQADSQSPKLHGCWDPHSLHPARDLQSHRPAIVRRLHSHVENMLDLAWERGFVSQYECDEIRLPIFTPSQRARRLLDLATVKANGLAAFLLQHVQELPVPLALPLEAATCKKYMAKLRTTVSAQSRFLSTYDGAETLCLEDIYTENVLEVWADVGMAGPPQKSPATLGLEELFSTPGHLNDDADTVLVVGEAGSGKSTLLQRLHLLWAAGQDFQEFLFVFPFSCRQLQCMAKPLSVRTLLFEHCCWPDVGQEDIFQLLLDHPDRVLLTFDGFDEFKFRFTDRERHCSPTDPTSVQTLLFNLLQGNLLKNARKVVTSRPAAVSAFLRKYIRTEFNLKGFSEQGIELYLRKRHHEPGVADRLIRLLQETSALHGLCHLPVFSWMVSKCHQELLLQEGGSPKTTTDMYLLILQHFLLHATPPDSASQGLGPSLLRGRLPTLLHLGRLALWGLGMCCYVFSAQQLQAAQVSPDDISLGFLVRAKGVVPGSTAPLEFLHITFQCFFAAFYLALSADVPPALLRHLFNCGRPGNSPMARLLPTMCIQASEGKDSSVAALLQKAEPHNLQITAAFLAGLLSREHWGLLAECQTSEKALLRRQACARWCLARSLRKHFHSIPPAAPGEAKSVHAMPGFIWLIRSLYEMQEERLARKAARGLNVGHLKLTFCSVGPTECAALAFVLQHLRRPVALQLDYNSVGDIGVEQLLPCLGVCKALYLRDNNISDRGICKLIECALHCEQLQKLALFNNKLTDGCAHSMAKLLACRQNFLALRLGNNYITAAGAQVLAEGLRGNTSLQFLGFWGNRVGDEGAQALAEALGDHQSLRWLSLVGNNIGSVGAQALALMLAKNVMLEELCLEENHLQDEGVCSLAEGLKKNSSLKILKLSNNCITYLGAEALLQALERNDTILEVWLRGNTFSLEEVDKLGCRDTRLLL

| Activity [1] | Activity [3] | Activity [4] | EC50 [4] [nM] | fold change (FC) [5] | Activity [6] | Structure (SMILES) | viability at 18 h, 20 µM [2] [%] | further results |
| --- | --- | --- | --- | --- | --- | --- | --- | --- |
| Active | inactive | – | – | – | – | COC(=O)c1cc(NC(=O)[C@@H](NC(=O)CNC(=O)/C=C/c2ccc(O)c(OC)c2)C(C)C)cc(C(=O)OC)c1 | > 80 | – |
| Active | inactive | Dose-dependent effect | 247 | 5.8 | inactive | CCOC(=O)CC[C@@H](NC(=O)[C@@H](NC(=O)CNC(=O)C1CC1c1ccc(F)c(F)c1)C(C)C)C(=O)OCC (some centres undefined) | > 80 | – |
| Active | inactive | – | – | 3.9 | inactive | CCOC(=O)CC[C@@H](NC(=O)[C@@H](NC(=O)CNC(=O)c1cc2ccc(-c3ccccc3)cc2[nH]1)C(C)C)C(=O)OCC | > 80 | – |
| Active | inactive | – | – | – | – | CCOC(=O)[C@@H]1CCCC[C@@H]1NC(=O)[C@@H](NC(=O)CNC(=O)/C=C/c1ccc(O)c(OC)c1)C(C)C | > 80 | – |
| – | inactive | Dose-dependent effect | 92 | 5.6 | inactive | CC(=O)N[C@H]1C(O)O[C@H](CO)[C@@H](O)[C@@H]1O[C@H](C)C(=O)N[C@@H](C)C(=O)N[C@H](CCC(=O)O)C(N)=O (some centres undefined) [MURAMYL DIPEPTIDE] | > 80 | Activity (PBMC [7]): Active; Activity (PBMC [8]): Active; Activity (PBMC [9]): Active; fold change (FC) (PBMC [10]): 5; fold change (FC) (PBMC [11]): 3.6; fold change (FC) (PBMC [12]): 4; Activity (PBMC [13]): Active; Activity (PBMC [14]): Active; Activity (PBMC [15]): Active; Activity (PBMC [16]): Active; Activity (Mus musculus [17]): Active; Ratio (Mus musculus [18]): 133; log(ratio) (Mus musculus [18]): 2.37 |
| Active | inactive | – | 172 | 5.6 | inactive | CCOC(=O)CC[C@@H](NC(=O)[C@@H](NC(=O)CNC(=O)/C=C/c1ccc(F)c(F)c1)C(C)C)C(=O)OCC | > 80 | – |
| Active | inactive | – | 6980 | 2.7 | inactive | COc1cc(/C=C/C(=O)NCC(=O)N[C@H](C(=O)N[C@H](CCC(=O)O)C(=O)O)C(C)C)ccc1O | > 80 | Retention_time [19]: 2.88 min; Stability [20]: Stable; Drug uptake [21]: 0.4 µM |
| Active | inactive | – | 2790 | 4.5 | inactive | CCOC(=O)CC[C@@H](NC(=O)[C@H](C)NC(=O)CNC(=O)/C=C/c1ccc(O)c(OC)c1)C(=O)OCC | > 80 | – |
| Active | inactive | Dose-dependent effect | 472 | 5.3 | inactive | CCOC(=O)CC[C@@H](NC(=O)[C@H](Cc1ccccc1)NC(=O)CNC(=O)[C@@H]1C[C@H]1c1ccccc1)C(=O)OCC | > 80 | – |
| Active | inactive | Dose-dependent effect | 777 | 4.8 | inactive | CCOC(=O)CC[C@@H](NC(=O)[C@H](Cc1ccccc1)NC(=O)CNC(=O)c1cc2ccc(-c3ccccc3)cc2[nH]1)C(=O)OCC | > 80 | – |
| Active | inactive | Dose-dependent effect | 172 | 5.4 | inactive | CCOC(=O)CC[C@@H](NC(=O)[C@H](Cc1ccccc1)NC(=O)CNC(=O)/C=C/c1ccc(F)c(F)c1)C(=O)OCC | > 80 | – |
| Active | inactive | – | – | – | – | COC(=O)c1ccc(C(=O)OC)c(NC(=O)[C@@H](NC(=O)CNC(=O)/C=C/c2ccc(O)c(OC)c2)C(C)C)c1 | > 80 | – |
| Active | inactive | Dose-dependent effect | 121 | 5.7 | inactive | CCOC(=O)CC[C@@H](NC(=O)[C@H](Cc1ccccc1)NC(=O)CNC(=O)/C=C/c1ccc(O)c(OC)c1)C(=O)OCC | > 80 | – |
| Active | inactive | – | – | – | – | CCOC(=O)c1cc(O)ccc1NC(=O)[C@@H](NC(=O)CNC(=O)/C=C/c1ccc(O)c(OC)c1)C(C)C | > 80 | – |
| Active | inactive | – | – | – | – | CCOC(=O)[C@H]1CCCC[C@@H]1NC(=O)[C@@H](NC(=O)CNC(=O)/C=C/c1ccc(O)c(OC)c1)C(C)C | > 80 | – |
| Active | inactive | Dose-dependent effect | 276 | 5.2 | inactive | CCOC(=O)CC[C@@H](NC(=O)[C@H](Cc1ccccc1)NC(=O)CNC(=O)C1CC1c1ccc(F)c(F)c1)C(=O)OCC (some centres undefined) | > 80 | – |
| Active | inactive | – | – | 4.4 | inactive | CCOC(=O)CC[C@@H](NC(=O)[C@@H](NC(=O)CNC(=O)[C@@H]1C[C@H]1c1ccccc1)C(C)C)C(=O)OCC | > 80 | – |
| Active | inactive | Dose-dependent effect | 223 | 5.7 | inactive | CCOC(=O)CC[C@@H](NC(=O)[C@@H](NC(=O)CNC(=O)/C=C/c1ccccc1)C(C)C)C(=O)OCC | > 80 | – |
| Active | inactive | – | – | – | – | CCOC(=O)C1CCN(C(=O)[C@@H](NC(=O)CNC(=O)/C=C/c2ccc(O)c(OC)c2)C(C)C)CC1 | > 80 | – |
| Active | inactive | Dose-dependent effect | 388 | 5.3 | inactive | CCOC(=O)CC[C@@H](NC(=O)[C@H](Cc1ccccc1)NC(=O)CNC(=O)/C=C/c1ccccc1)C(=O)OCC | > 80 | – |
